# Measured values reported in US7045626B2, “Quinoline derivatives, process for preparing them and use for the treatment of diseases mediated by s-CD23” (SmithKline Beecham p.l.c., priority 2001, dated 2006).
# What was measured:
# [1] = tested on: release of soluble CD23 from RPMI 8866 cell plasma membranes; assay: RPMI 8866 cell membrane CD23 cleavage activity assay; assay type: biochemical, human; details: RPMI 8866 plasma membranes, 37° C., sCD23 by EIA; read-out: IC50, inhibition of production of sCD23
# Description: Procedure 1: The ability of test compounds to inhibit the release of soluble CD23 was investigated by use of the following procedure.
# RPMI 8866 Cell Membrane CD23 Cleavage Activity Assay:
# Plasma membranes from RPMI 8866 cells, a human Epstein-Barr virus transformed B-cell line (Sarfati et al., Immunology 60 [1987] 539–547) expressing high levels of CD23 are purified using an aqueous extraction method. Cells resuspended in homogenization buffer (20 mM HEPES pH 7.4, 150 mM NaCl, 1.5 mM MgCl2, 1 mM DTT) are broken by N2 cavitation in a Parr bomb and the plasma membrane fraction mixed with other membranes is recovered by centrifugation at 10,000×g. […]
# The fractionated membranes are incubated at 37° C. for times up to 4 hrs to produce fragments of CD23 which are separated from the membrane by filtration in 0.2 micron Durapore filter plates (Millipore) after quenching the assay with a non-selecitve MMP inhibitor, e.g. 5 uM Preparation 1 from WO 95/31457 ([4-(N-Hydroxyamino)-2-(R)-isobutyl-3-(S)-(2-thiophenethiomethyl)succinyl]-(S)-phenylalanine-N-methylamide sodium salt, prepared according to the procedure described in Example 11 of WO 90/05719). sCD23 released from the membrane is determined using the EIA kit from The Binding Site (Birmingham, UK) or a similar one utilising MHM6 anti-CD23 mAb [Rowe et al., Int. […]
# [2] = molecular target: T1, MMP-3 (Homo sapiens, UniProt P08254); assay: General MMP inhibition assay (fluorescence quench); assay type: biochemical; details: inhibitor up to 100 uM
# T1 construct: purchased Calbiochem
# Description: (§1) General MMP Inhibition Assays:
# (§2) Inhibition of matrix metalloprotease activity was determined using a fluorescence quench assay with appropriate substrate. For example, MMP activity was determined using MMP activated using trypsin, according to Lark et al, Connective Tissue Res. 25, 52 (1990). The MMP is incubated at room temperature in a microtitre plate in a total volume of 100 ul, containing 0.15 M Tris Cl, 15 mM CaCl2, 0.2 M NaCl, pH 7.6 (assay buffer); inhibitor at concentrations up to 100 uM, with no more than 2% DMSO final concentration, 10 uM substrate (such as SDP-3815-PI for MMP-1, Peptides International). The MMP concentration is <10 nM, and determined empirically with the appropriate substrate to give at least a 20-fold increase in fluorescence emission in 30 min. Fluorescent excitation wavelength was 355 nm, emission wavelength 400–460 nm, and data points are collected to generate slope (change in fluorescence with time). Percent inhibition for each concentration is calculated from the slope at time zero, and IC50 values from the concentration dependence. MMP-1, 2, 3, 7, 9, 13, 14 may all be assayed in the same manner, using commercially available substrates reported to be effective for each enzyme. Enzymes were obtained from Calbiochem and activated using the same trypsin method.
# [3] = molecular target: T2, MMP-13 (Homo sapiens, UniProt P45452); assay: General MMP inhibition assay (fluorescence quench); assay type: biochemical; details: inhibitor up to 100 uM
# T2 construct: purchased Calbiochem
# Description: as §1, §2
# [4] = molecular target: T3, human recombinant collagenase (Homo sapiens, UniProt P03956); assay: Collagenase inhibition assay; assay type: biochemical; details: 37° C., 18 h, 3H type 1 bovine collagen; read-out: IC50, collagenase inhibition (procedure 2)
# T3 construct: made in house; host or cells: E. coli
# T3 sequence (P03956 100-469): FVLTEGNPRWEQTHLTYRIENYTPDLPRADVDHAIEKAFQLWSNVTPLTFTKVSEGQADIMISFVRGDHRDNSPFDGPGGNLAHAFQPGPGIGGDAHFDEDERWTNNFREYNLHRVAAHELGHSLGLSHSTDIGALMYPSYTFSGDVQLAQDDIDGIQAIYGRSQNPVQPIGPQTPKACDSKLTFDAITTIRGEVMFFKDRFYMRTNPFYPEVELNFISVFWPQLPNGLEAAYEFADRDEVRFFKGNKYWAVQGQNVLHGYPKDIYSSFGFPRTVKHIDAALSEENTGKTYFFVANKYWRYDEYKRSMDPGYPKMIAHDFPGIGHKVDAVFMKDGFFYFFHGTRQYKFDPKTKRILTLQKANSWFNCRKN
# Description: Procedure 2: The ability of test compounds to inhibit matrix metalloproteases was investigated using the following procedures.
# Collagenase Inhibition Assay:
# The potency of compounds to act as inhibitors of collagenase was determined by the method of Cawston and Barrett (Anal. Biochem. 99, 340–345, 1979), hereby incorporated by reference, whereby a 1 mM solution of the inhibitor being tested or dilutions thereof, was incubated at 37° C. for 18 h with collagen and human recombinant collagenase, from synovial fibroblasts cloned, expressed and purified from E. Coli, (buffered with 150 mM Tris, pH 7.6, containing 15 mM calcium chloride, 0.05% Brij 35, 200 mM sodium chloride and 0.02% sodium azide). The collagen was acetylated ^3H type 1 bovine collagen prepared by the method of Cawston and Murphy (methods in Enzymology 80, 711,1981) The samples were centrifuged to sediment undigested collagen and an aliquot of the radioactive supernatant removed for assay on a scintillation counter as a measure of hydrolysis. The collagenase activity in the presence of 1 mM inhibitor, or dilution thereof, was compared to activity in a control devoid of inhibitor and the results reported as that concentration effecting 50% of the collagenase (IC50).
# T1 sequence (P08254 100-477, species assumed): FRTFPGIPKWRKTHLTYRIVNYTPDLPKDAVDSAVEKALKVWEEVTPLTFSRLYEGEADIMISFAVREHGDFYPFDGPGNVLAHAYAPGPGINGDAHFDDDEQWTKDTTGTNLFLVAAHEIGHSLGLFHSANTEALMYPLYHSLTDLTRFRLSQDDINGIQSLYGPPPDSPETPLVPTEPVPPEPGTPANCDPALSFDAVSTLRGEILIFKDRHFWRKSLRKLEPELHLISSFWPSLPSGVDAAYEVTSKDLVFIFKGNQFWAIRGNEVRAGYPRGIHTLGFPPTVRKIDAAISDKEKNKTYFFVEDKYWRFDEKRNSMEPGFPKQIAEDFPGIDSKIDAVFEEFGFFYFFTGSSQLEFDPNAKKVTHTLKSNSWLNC
smiles,measurement,setting,value
O=CN(O)[C@H](CS(=O)(=O)Cc1cnc2ccccc2c1)[C@H]1CCCO1 [Example 1],IC50,[1],0.06 µM
same,IC50,[2],> 100 µM
same,IC50,[3],6 µM
same,IC50,[4],100 µM
